Data on one compound can be found in US5567805A, “The cellular receptor for the CS3 peptide of human immunodeficiency virus” (priority 1994, dated 1996).

The structures appear in SMILES notation.

For one assay, the system named is CD4. The assay can be described thus: CD4 expression on RH9 cells stimulated with TPA. In kind it is cell-based, human. As to the method:
(§1) FIG. 11. Cultures of RH9 cells were incubated with 10 ng/ml PMA (TPA) or 10 μg/ml antibody to the CD3 cell surface antigen or in medium alone. Comparisons are presented for each day of analysis for expression of CD4 (left panel) or CS3 binding (right panel). 0.50% of RH9 cells bound CS3-HSA-FITC. Relative to control cultures treatment with anti-CD3 increased CS3 domain expressing cells by 71% at 48 hours and 56% at 72 hours, while TPA increased CS3-binding by 32% at 72 hours. CS3-HSA-FITC fluorescence intensity, reflecting the number of receptors per cell, increased while CD4 expression decreased in intensity and number of positive cells (8% at 24 hours).

A further assay has as its system CS3 binding domain. The assay can be described thus: CS3 binding on RH9 cells stimulated with anti-CD3 or TPA. In kind it is cell-based, human. As to the method: as §1

For `CCCCCCCCCCCCCC(=O)O[C@@H]1[C@@H](C)[C@@]2(O)[C@@H](C=C(CO)C[C@]3(O)C(=O)C(C)=C[C@@H]23)[C@@H]2C(C)(C)[C@]12OC(C)=O` [TPA, tetraphorbol 13-myristyl acetate], the “CD4 expression after treatment” value in the assay with CD4 is “lost”. Besides, the “CS3 binding / receptor density after stimulation” value in the assay with CS3 binding domain is listed as “CS3 binding was increased”. In the assay on CS3 binding domain (72 hours), the “increase in CS3 domain expressing cells / CS3-binding relative to control cultures” value is reported as 32%.
